Experimental data published in patent US20230085307A1, “PYRIDAZINONE COMPOUND AND HERBICIDE” (NISSAN CHEMICAL CORPORATION, priority 2019, published 2023).

Experiments:
wild oat = test: Test Example 5: herbicidal effect by foliage application, plastic box (Table 20, symbol I); type: in vivo, wild oat (Avena fatua); conditions: amount of applied herbicide 320 g/ha; foliage application after 14-day growth; evaluated three weeks after application
Outline: (§1)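 Plants were sown into sterilized diluvial soil under about 1.5 cm cover and kept in a greenhouse at 25° C. to 30° C. Fourteen days on, foliage received an even spray of the diluted emulsion. Herbicidal or crop effect was judged three weeks afterwards.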

Chinese sprangletop = test: Test Example 3: herbicidal effect by foliage application, Wagner pot (Table 18, symbol D); type: in vivo, chinese sprangletop (Leptochloa chinensis); conditions: 320 g/ha
Outline: (§2)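 Plants were sown in alluvial soil held under 0.1–0.5 cm standing water and grown 14 days in a greenhouse at 25–30 °C. An emulsifiable formulation, water-diluted to the set dose, was then sprayed onto the foliage, and effects were scored three weeks later using previously defined criteria.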

redroot pigweed = test: Test Example 5: herbicidal effect by foliage application, plastic box (Table 20, symbol N); type: in vivo, redroot pigweed (Amaranthus retroflexus); conditions: amount of applied herbicide 320 g/ha; foliage application after 14-day growth; evaluated three weeks after application
Outline: as §1

windgrass = test: Test Example 5: herbicidal effect by foliage application, plastic box (Table 20, symbol L); type: in vivo, windgrass (Apera spica-venti); conditions: amount of applied herbicide 320 g/ha; foliage application after 14-day growth; evaluated three weeks after application
Outline: as §1

barnyard grass [1] = test: Test Example 5: herbicidal effect by foliage application, plastic box (Table 20, symbol H); type: in vivo, barnyard grass (Echinochloa crus-galli); conditions: amount of applied herbicide 320 g/ha; foliage application after 14-day growth; evaluated three weeks after application
Outline: as §1

southern crabgrass = test: Test Example 5: herbicidal effect by foliage application, plastic box (Table 20, symbol F); type: in vivo, southern crabgrass (Digitaria ciliaris); conditions: amount of applied herbicide 320 g/ha; foliage application after 14-day growth; evaluated three weeks after application
Outline: as §1

blackgrass = test: Test Example 5: herbicidal effect by foliage application, plastic box (Table 20, symbol J); type: in vivo, blackgrass (Alopecurus myosuroides); conditions: amount of applied herbicide 320 g/ha; foliage application after 14-day growth; evaluated three weeks after application
Outline: as §1

Italian ryegrass = test: Test Example 5: herbicidal effect by foliage application, plastic box (Table 20, symbol K); type: in vivo, Italian ryegrass (Lolium multiflorum); conditions: amount of applied herbicide 320 g/ha; foliage application after 14-day growth; evaluated three weeks after application
Outline: as §1

persian speedwell = test: Test Example 5: herbicidal effect by foliage application, plastic box (Table 20, symbol R); type: in vivo, Persian speedwell (Veronica persica); conditions: amount of applied herbicide 320 g/ha; foliage application after 14-day growth; evaluated three weeks after application
Outline: as §1

rice flat sedge = test: Test Example 3: herbicidal effect by foliage application, Wagner pot (Table 18, symbol E); type: in vivo, rice flat sedge (Cyperus iria); conditions: 320 g/ha
Outline: as §2

barnyard grass [2] = test: Test Example 3: herbicidal effect by foliage application, Wagner pot (Table 18, symbol H); type: in vivo, barnyard grass (Echinochloa crus-galli); conditions: 320 g/ha
Outline: as §2

green foxtail = test: Test Example 5: herbicidal effect by foliage application, plastic box (Table 20, symbol G); type: in vivo, green foxtail (Setaria viridis); conditions: amount of applied herbicide 320 g/ha; foliage application after 14-day growth; evaluated three weeks after application
Outline: as §1

chickweed = test: Test Example 5: herbicidal effect by foliage application, plastic box (Table 20, symbol P); type: in vivo, common chickweed (Stellaria media); conditions: amount of applied herbicide 320 g/ha; foliage application after 14-day growth; evaluated three weeks after application
Outline: as §1

lambsquarters = test: Test Example 5: herbicidal effect by foliage application, plastic box (Table 20, symbol O); type: in vivo, lambsquarters (Chenopodium album); conditions: amount of applied herbicide 320 g/ha; foliage application after 14-day growth; evaluated three weeks after application
Outline: as §1

velvetleaf = test: Test Example 5: herbicidal effect by foliage application, plastic box (Table 20, symbol M); type: in vivo, velvetleaf (Abutilon theophrasti); conditions: amount of applied herbicide 320 g/ha; foliage application after 14-day growth; evaluated three weeks after application
Outline: as §1

| SMILES | Herbicidal effect by foliage application, I: wild oat (wild oat) | herbicidal effect on Chinese sprangletop (D) (Chinese sprangletop) | Herbicidal effect by foliage application, N: redroot pigweed (redroot pigweed) | Herbicidal effect by foliage application, L: windgrass (windgrass) | Herbicidal effect by foliage application, H: barnyard grass (barnyard grass [1]) | Herbicidal effect by foliage application, F: southern crabgrass (southern crabgrass) | Herbicidal effect by foliage application, J: blackgrass (blackgrass) | Herbicidal effect by foliage application, K: Italian ryegrass (Italian ryegrass) | Herbicidal effect by foliage application, R: persian speedwell (persian speedwell) | herbicidal effect on rice flat sedge (E) (rice flat sedge) | herbicidal effect on barnyard grass (H) (barnyard grass [2]) | Herbicidal effect by foliage application, G: green foxtail (green foxtail) | Herbicidal effect by foliage application, P: chickweed (chickweed) | Herbicidal effect by foliage application, O: lambsquarters (lambsquarters) | Herbicidal effect by foliage application, M: velvetleaf (velvetleaf) |
| --- | --- | --- | --- | --- | --- | --- | --- | --- | --- | --- | --- | --- | --- | --- | --- |
| CCCC(=O)Oc1c(C)nn(C)c(=O)c1-c1c(-c2ccc(OC)cc2)sc2cc(Cl)c(Cl)cc12 [5-044] | 0 (Herbicidal rate of 5% or less (almost no effect)) | 3 (Herbicidal rate of 40% or more and less than 70%) | 0 (Herbicidal rate of 5% or less (almost no effect)) | 0 (Herbicidal rate of 5% or less (almost no effect)) | 0 (Herbicidal rate of 5% or less (almost no effect)) | 0 (Herbicidal rate of 5% or less (almost no effect)) | 0 (Herbicidal rate of 5% or less (almost no effect)) | 0 (Herbicidal rate of 5% or less (almost no effect)) | 4 (Herbicidal rate of 70% or more and less than 90%) | 3 (Herbicidal rate of 40% or more and less than 70%) | 3 (Herbicidal rate of 40% or more and less than 70%) | 0 (Herbicidal rate of 5% or less (almost no effect)) | 5 (Herbicidal rate of 90% or more (almost completely withered)) | 3 (Herbicidal rate of 40% or more and less than 70%) | 1 (Herbicidal rate of 5% or more and less than 20%) |
| Cc1nn(C)c(=O)c(-c2c(-c3ccc(C(F)(F)F)cc3)sc3cc(Cl)c(Cl)cc23)c1O [5-047] | 0 (Herbicidal rate of 5% or less (almost no effect)) | 0 (Herbicidal rate of 5% or less (almost no effect)) | 3 (Herbicidal rate of 40% or more and less than 70%) | 2 (Herbicidal rate of 20% or more and less than 40%) | 0 (Herbicidal rate of 5% or less (almost no effect)) | 0 (Herbicidal rate of 5% or less (almost no effect)) | 0 (Herbicidal rate of 5% or less (almost no effect)) | 0 (Herbicidal rate of 5% or less (almost no effect)) | 0 (Herbicidal rate of 5% or less (almost no effect)) | 0 (Herbicidal rate of 5% or less (almost no effect)) | 3 (Herbicidal rate of 40% or more and less than 70%) | 0 (Herbicidal rate of 5% or less (almost no effect)) | 0 (Herbicidal rate of 5% or less (almost no effect)) | 1 (Herbicidal rate of 5% or more and less than 20%) | 0 (Herbicidal rate of 5% or less (almost no effect)) |
